Literature values in US20070015728A1, “Metered-dose and safety and compliance packaging for systemic anticancer therapy” (priority 2005, published 2007).

How the values were obtained:
OPRT = biological target: T1, OPRT (Homo sapiens, UniProt P11172); details: neutral pH
T1 sequence (P11172 1-480): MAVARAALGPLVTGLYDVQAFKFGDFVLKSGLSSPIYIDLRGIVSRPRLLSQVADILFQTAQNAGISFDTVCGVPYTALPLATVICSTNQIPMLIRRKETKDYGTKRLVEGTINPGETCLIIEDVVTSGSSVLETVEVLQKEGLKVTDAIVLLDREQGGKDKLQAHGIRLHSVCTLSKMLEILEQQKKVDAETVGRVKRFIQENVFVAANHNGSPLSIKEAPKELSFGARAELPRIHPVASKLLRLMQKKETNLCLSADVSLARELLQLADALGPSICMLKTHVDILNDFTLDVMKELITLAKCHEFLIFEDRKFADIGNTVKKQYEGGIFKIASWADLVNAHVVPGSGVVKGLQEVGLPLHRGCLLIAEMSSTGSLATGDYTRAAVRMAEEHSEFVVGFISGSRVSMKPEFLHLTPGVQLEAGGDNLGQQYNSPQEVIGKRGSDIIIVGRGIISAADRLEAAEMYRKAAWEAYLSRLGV

hand-foot syndrome (HFS) = details: treatment with capecitabine at the FDA-approved dose; XELODA product insert

| Compound | Km for OPRT, fold lower than 5-FU (OPRT) [fold] | grade 3 incidence of HFS (hand-foot syndrome (HFS)) | incidence of HFS irrespective of grade (hand-foot syndrome (HFS)) |
| --- | --- | --- | --- |
| O=C(O)c1cc(=O)[nH]c(=O)[nH]1 [Orotate] | ~50 |  |  |
| CCCCCOC(=O)Nc1nc(=O)n([C@@H]2O[C@H](C)[C@@H](O)[C@H]2O)cc1F [Xeloda, Capecitabine] |  | 11-17% | 54%-67% |
